Experimental data: ChEMBL document CHEMBL5375989, “Pioneering 4,11-Dioxo-4,11-dihydro-1H-anthra[2,3-d]imidazol-3-ium Compounds as Promising Survivin Inhibitors by Targeting ILF3/NF110 for Cancer Therapy” (J Med Chem, 2023)
Blank lines part the entries; values can stand above or below the compound they belong to. Active and inactive are the calls of the source. The rule behind the calls is not given here.

Legend:
[1] = (§1) Antiproliferative activity against mouse L929 cells assessed as inhibition of cell growth measured after 48 hrs by MTT assay; format: toxicity, cell-based; conditions: mouse, L929 cells
[2] = tested on: A549; experiment: cells; conditions: Homo sapiens, A549, 48 h
Description: (§2) Antiproliferative activity against human A549 cells assessed as inhibition of cell growth measured after 48 hrs by MTT assay

[3] = Selectivity index, ratio of IC50 for mouse L929 cells to IC50 for human A549 cells; format: toxicity; conditions: for selectivity ratio: L929 cells and A549 cells, read-out: Ratio IC50
[4] = tested on: A549
Description: as §2

[5] = tested on: L929; experiment: as §1; format: toxicity, cell-based; conditions: l929
[6] = tested on: 143B; experiment: Antiproliferative activity against human 143B cells assessed as inhibition of cell growth measured after 48 hrs by MTT assay; format: functional, cell-based; conditions: Homo sapiens, 143B, 48 h
[7] = tested on: A549; experiment: Induction of apoptosis in human A549 cells assessed as late apoptotic cells at 0.25 uM measured after 48 hrs by annexin V and PI staining based flow cytometry analysis (reference value: 4.70%); format: functional
[8] = tested on: MCF7; experiment: Antiproliferative activity against human MCF7 cells assessed as inhibition of cell growth measured after 48 hrs by MTT assay; format: functional, cell-based; conditions: MCF7, 48 h
[9] = tested on: TE-1; experiment: cells; conditions: Homo sapiens, TE-1, 48 h
Description: Antiproliferative activity against human TE-1 cells assessed as inhibition of cell growth measured after 48 hrs by MTT assay

[10] = tested on: A549; experiment: Induction of apoptosis in human A549 cells assessed as necrotic cells at 0.04 uM measured after 48 hrs by annexin V and PI staining based flow cytometry analysis (reference value: 1.47%); format: functional
[11] = tested on: 5637; experiment: cells; conditions: Homo sapiens, 5637, 48 h
Description: Antiproliferative activity against human 5637 cells assessed as inhibition of cell growth measured after 48 hrs by MTT assay

[12] = tested on: ASPC1; experiment: Antiproliferative activity against human ASPC1 cells assessed as inhibition of cell growth measured after 48 hrs by MTT assay; format: functional, cell-based; conditions: Homo sapiens, ASPC1, 48 h
[13] = tested on: BXPC-3; experiment: Antiproliferative activity against human BXPC-3 cells assessed as inhibition of cell growth measured after 48 hrs by MTT assay; format: functional, cell-based; conditions: Homo sapiens, BXPC-3, 48 h
[14] = tested on: A549; experiment: Antitumor activity against human A549 cells xenografted in BALB/c nude mouse assessed as increase in apoptosis at 2 mg/kg measured after 14 days by tunel staining based analysis; format: functional, organism-based; conditions: time 14.0 day
[15] = tested on: A549; experiment: Induction of apoptosis in human A549 cells assessed as viable cells at 0.25 uM measured after 48 hrs by annexin V and PI staining based flow cytometry analysis (reference value: 93.3%); format: functional; conditions: Homo sapiens, A549, 48 h, read-out: Activity
[16] = tested on: A549; experiment: Inhibition of colony formation in human A549 cells assessed as suppression of colony formation at 1 nM replaced with fresh medium for every 72 hrs and measured for 15 days by crystal violet staining based assay; format: functional, cell-based; conditions: time 15.0 day
[17] = tested on: HeLa; experiment: Antiproliferative activity against human HeLa cells assessed as inhibition of cell growth measured after 48 hrs by MTT assay; format: functional, cell-based; conditions: Homo sapiens, HeLa, 48 h
[18] = tested on: A549; experiment: Induction of apoptosis in human A549 cells assessed as necrotic cells at 0.1 uM measured after 48 hrs by annexin V and PI staining based flow cytometry analysis (reference value: 1.47%); format: functional
[19] = tested on: A549; experiment: Induction of apoptosis in human A549 cells assessed as late apoptotic cells at 0.1 uM measured after 48 hrs by annexin V and PI staining based flow cytometry analysis (reference value: 4.70%); format: functional
[20] = tested on: PANC-1; experiment: Antiproliferative activity against human PANC-1 cells assessed as inhibition of cell growth measured after 48 hrs by MTT assay; format: functional, cell-based; conditions: Homo sapiens, PANC-1, 48 h
[21] = tested on: HepG2; experiment: Antiproliferative activity against human HepG2 cells assessed as inhibition of cell growth measured after 48 hrs by MTT assay; format: functional, cell-based; conditions: Homo sapiens, HepG2, 48 h
[22] = tested on: A549; experiment: Antitumor activity against human A549 cells xenografted in BALB/c nude mouse assessed as decrease in tumor cell proliferation at 2 mg/kg measured after 14 days by Ki67 staining based analysis; format: functional, organism-based; conditions: time 14.0 day
[23] = tested on: A549; experiment: Induction of apoptosis in human A549 cells assessed as necrotic cells at 0.25 uM measured after 48 hrs by annexin V and PI staining based flow cytometry analysis (reference value: 1.47%); format: functional
[24] = tested on: A549; experiment: Antitumor activity against human A549 cells xenografted in BALB/c nude mouse assessed as inhibition of tumor growth at 2 mg/kg, sc administered every 2 days for 14 days; format: functional, organism-based; conditions: time 14.0 day
[25] = tested on: A549; experiment: Antitumor activity against human A549 cells xenografted in BALB/c nude mouse assessed as decrease in tumor cell proliferation at 2 mg/kg measured after 14 days by PCNA staining based analysis; format: functional, organism-based; conditions: time 14.0 day
[26] = tested on: A549; experiment: Induction of apoptosis in human A549 cells assessed as late apoptotic cells at 0.04 uM measured after 48 hrs by annexin V and PI staining based flow cytometry analysis (reference value: 4.70%); format: functional
[27] = tested on: A549; experiment: Antitumor activity against human A549 cells xenografted in BALB/c nude mouse assessed as appearance of various size of tumor necrosis at 2 mg/kg measured after 14 days by H and E staining based analysis; format: functional, organism-based; conditions: time 14.0 day
[28] = tested on: A549; experiment: Induction of apoptosis in human A549 cells assessed as early apoptotic cells at 0.25 uM measured after 48 hrs by annexin V and PI staining based flow cytometry analysis (reference value: 0.71%); format: functional
[29] = tested on: A549; experiment: Induction of apoptosis in human A549 cells assessed as early apoptotic cells at 0.04 uM measured after 48 hrs by annexin V and PI staining based flow cytometry analysis (reference value: 0.71%); format: functional
[30] = tested on: A549; experiment: Induction of apoptosis in human A549 cells assessed as viable cells at 0.04 uM measured after 48 hrs by annexin V and PI staining based flow cytometry analysis (reference value: 93.3%); format: functional; conditions: Homo sapiens, A549, 48 h, read-out: Activity
[31] = tested on: NCI-H460; experiment: Antiproliferative activity against human NCI-H460 cells assessed as inhibition of cell growth measured after 48 hrs by MTT assay; format: functional, cell-based; conditions: Homo sapiens, NCI-H460, 48 h
[32] = tested on: NCI-H1299; experiment: Antiproliferative activity against human NCI-H1299 cells assessed as inhibition of cell growth measured after 48 hrs by MTT assay; format: functional, cell-based; conditions: Homo sapiens, NCI-H1299, 48 h
[33] = tested on: A549; experiment: Induction of apoptosis in human A549 cells assessed as viable cells at 0.1 uM measured after 48 hrs by annexin V and PI staining based flow cytometry analysis (reference value: 93.3%); format: functional; conditions: Homo sapiens, A549, 48 h, read-out: Activity
[34] = tested on: A549; experiment: Induction of apoptosis in human A549 cells assessed as early apoptotic cells at 0.1 uM measured after 48 hrs by annexin V and PI staining based flow cytometry analysis (reference value: 0.71%); format: functional
[35] = tested on: A549; experiment: Induction of autophagy in human A549 cells assessed as formation of GFP-LC3 punctate by confocal fluorescence microscopy analysis; format: functional, cell-based; conditions: dose 0.01-0.1 µM
[36] = tested on: A549; experiment: Induction of DNA damage in human A549 cells measured after 36 hrs by comet assay; format: functional, cell-based; conditions: dose 0.04-0.1 µM
[37] = tested on: A549; experiment: Induction of oxidative stress in human A549 cells assessed as upregulation of ROS level by DCFH-DA staining based analysis; format: functional, cell-based; conditions: dose 0.04-0.1 µM
[38] = tested on: A549; experiment: Induction of apoptosis in survivin silenced human A549 cells assessed as decrease in apoptotic rate at 0.04 uM measured after 48 hrs by AnnexinV-FITC/PI staining based flow cytometry; format: functional, cell-based
[39] = tested on: A549; experiment: Induction of apoptosis in human A549 cells assessed as inhibition of Bcl-2 level measured after 48 hrs by Western blot analysis; format: functional, cell-based; conditions: dose 0.01-0.1 µM
[40] = tested on: A549; experiment: Antitumor activity against human A549 cells xenografted in BALB/c nude mouse assessed as appearance of tumor necrosis at 4 mg/kg measured after 14 days by H and E staining based analysis; format: functional, organism-based; conditions: time 14.0 day
[41] = tested on: A549; experiment: Induction of DNA damage in human A549 cells assessed as increase in DNA percentage in tail at low concentration measured after 36 hrs by comet assay; format: functional, cell-based
[42] = tested on: A549; experiment: Induction of apoptosis in human A549 cells assessed as upregulation of bax level measured after 48 hrs by Western blot analysis; format: functional, cell-based; conditions: dose 0.01-0.1 µM
[43] = tested on: A549; experiment: Antitumor activity against human A549 cells xenografted in BALB/c nude mouse assessed as decrease in tumor cell proliferation at 2 to 4 mg/kg measured after 14 days by Ki67 staining based analysis; format: functional, organism-based; conditions: dose 2-4 mg/kg, time 14.0 day
[44] = tested on: A549; experiment: Antitumor activity against human A549 cells xenografted in BALB/c nude mouse assessed as decrease in tumor cell proliferation at 2 to 4 mg/kg measured after 14 days by PCNA staining based analysis; format: functional, organism-based; conditions: dose 2-4 mg/kg, time 14.0 day
[45] = tested on: A549; experiment: Induction of autophagy in human A549 cells assessed as increase in LC3II amount by Western blot analysis; format: functional, cell-based; conditions: dose 0.04-0.1 µM
[46] = tested on: A549; experiment: Antitumor activity against human A549 cells xenografted in BALB/c nude mouse assessed as increase in apoptosis at 2 to 4 mg/kg measured after 14 days by tunel staining based analysis; format: functional, organism-based; conditions: dose 2-4 mg/kg, time 14.0 day
[47] = target: Baculoviral IAP repeat-containing protein 5 (Homo sapiens) (UniProt O15392); experiment: Inhibition of Survivin (unknown origin) expressed in HEK293T cells in presence of ILF3/NF110 by Dual luciferase reporter assay; format: cell-based; conditions: dose <= 2000.0 nM
[48] = tested on: A549; experiment: Inhibition of survivin mRNA expression in human A549 cells by Q-PCR analysis; format: functional, cell-based; conditions: dose 0.01-0.1 µM
[49] = tested on: A549; experiment: Induction of apoptosis in human A549 cells assessed as increase in caspase-3 cleavage at low concentration measured after 48 hrs by Western blot analysis; format: functional, cell-based
[50] = tested on: A549; experiment: Inhibition of survivin protein expression in human A549 cells by Western blot analysis; format: functional, cell-based; conditions: dose 0.004 µM
[51] = tested on: A549; experiment: Induction of DNA damage in human A549 cells assessed as gammaH2AX accumulation at 0.04 uM by Western blot analysis; format: functional, cell-based

Sequence of Baculoviral IAP repeat-containing protein 5 (Homo sapiens) (O15392 whole entry): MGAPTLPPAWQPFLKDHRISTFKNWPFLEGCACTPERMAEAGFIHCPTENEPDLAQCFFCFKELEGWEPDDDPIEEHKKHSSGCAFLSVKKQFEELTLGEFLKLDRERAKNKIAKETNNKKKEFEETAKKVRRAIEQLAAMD

IC50 [2]: 90 nM
SMILES: Cn1c2c([n+](C)c1-c1ccco1)C(=O)c1cc3ccccc3cc1C2=O
IC50 at 48 h [1]: 8900 nM
selectivity ratio [3]: 99

IC50 [2]: 920 nM
SMILES: Cn1c2c([n+](C)c1-c1ccccc1F)C(=O)c1ccccc1C2=O
IC50 at 48 h [1]: 9200 nM
selectivity ratio [3]: 10

IC50 [4]: 30 nM
SMILES: Cn1c[n+](C)c2c1C(=O)c1ccccc1C2=O.[I-]
IC50 [5]: 3520 nM
Ratio IC50 [3]: 117

The remaining lines, values behind:

SMILES: Cn1c[n+](C)c2c1C(=O)c1ccccc1C2=O.F[P-](F)(F)(F)(F)F
IC50 [4]: 170 nM
IC50 [5]: 1800 nM
Ratio IC50 [3]: 10.6

SMILES: COCC[n+]1c2c(n(Cc3cnccn3)c1C)C(=O)c1ccccc1C2=O.[Br-] [SEPANTRONIUM BROMIDE]
IC50 [6]: 320 nM
Activity [7]: 86.9%
IC50 [8]: 10 nM
IC50 [9]: 8 nM
Activity [10]: 24.2%
IC50 [11]: 110 nM
IC50 [12]: 510 nM
IC50 [13]: 90 nM
Activity [14]: Active
viability at 0.25 µM [15]: 4.72%
inhibition [16]: Active
IC50 [17]: 1800 nM
IC50 [2]: 10 nM
Activity [18]: 11.7%
Activity [19]: 76.4%
IC50 [20]: 10 nM
IC50 [21]: 3720 nM
Activity [22]: Active
Activity [23]: 7.79%
Activity [24]: inactive
Activity [25]: Active
Activity [26]: 51.1%
Activity [27]: Active
Activity [28]: 0.57%
Activity [29]: 1.65%
viability at 0.04 µM [30]: 22.2%
IC50 [31]: 100 nM
IC50 [32]: 120 nM
viability at 0.1 µM [33]: 11.3%
Activity [34]: 1.54%

SMILES: Cn1c[n+](C)c2c1C(=O)c1cc3ccccc3cc1C2=O
Activity [35]: Dose-Dependent Effect
Activity [36]: Dose-Dependent Effect
Activity [37]: Active
Activity [38]: Active
Activity [14]: Active
Activity [39]: Dose-Dependent Effect
inhibition [16]: Active
Activity [40]: Active
Activity [41]: Active
Activity [42]: Dose-Dependent Effect
Activity [43]: Active
Activity [44]: Active
Activity [45]: Dose-Dependent Effect
Activity [46]: Active
inhibition [47]: Dose-Dependent Effect
Activity [24]: Active
Activity [27]: Active
inhibition [48]: Active
Activity [49]: Active
inhibition [50]: Active
Activity [51]: Active

SMILES: CCn1c[n+](CC)c2ccccc21
IC50 at 48 h [1]: > 200000 nM
IC50 [2]: > 100000 nM
selectivity ratio [3]: < 10

SMILES: Cc1n(C)c2c([n+]1C)C(=O)c1cc3ccccc3cc1C2=O
IC50 [9]: 50 nM
IC50 [11]: 420 nM
IC50 at 48 h [1]: 15100 nM
IC50 [2]: 50 nM
selectivity ratio [3]: 302

SMILES: CCn1c[n+](CC)c2c1C(=O)c1ccccc1C2=O
IC50 at 48 h [1]: 5200 nM
IC50 [2]: 60 nM
selectivity ratio [3]: 86.7
